Several values for one entry are separate records, joined by “and”; a condition that tells them apart may be missing. Equal entries are not always repeated.
How the values were obtained:
[1] = tested on: HL-60; assay: In vitro cytotoxic activity against HL-60 human leukemia cell line by MTT assay (microculture terazolium colorimetric); assay type: functional, cell-based
[2] = tested on: P388; assay: In vitro cytotoxic activity against P388 mouse leukemia cell line by MTT assay (microculture terazolium colorimetric); assay type: functional, cell-based
[3] = tested on: SGC-7901; assay: In vitro cytotoxic activity against SGC-7901 stomach cancer solid tumor cell line by MTT assay (microculture terazolium colorimetric); assay type: functional, cell-based; details: Homo sapiens
[4] = tested on: SPC-A4; assay: In vitro cytotoxic activity against SPC-A4 lung cancer solid tumor cell line by MTT assay (microculture terazolium colorimetric); assay type: functional, cell-based; details: Homo sapiens
[5] = tested on: Mus musculus; assay: In vivo inhibitory activity against murine S-180 sarcoma at a dose of 3.75 mg/kg (day 7); assay type: functional; details: S-180, 168 h
[6] = tested on: Mus musculus; assay: In vivo inhibitory activity against murine S-180 sarcoma at a dose of 3.75 mg/kg i.p. (day 7); assay type: functional; details: S-180, ip, 168 h, route intraperitoneal
[7] = tested on: Mus musculus; assay: (§1) In vivo inhibitory activity against murine S-180 sarcoma at a dose of 7.5 mg/kg (day 7); assay type: functional; details: S-180, 168 h
[8] = tested on: Mus musculus; assay: In vivo inhibitory activity against murine S-180 sarcoma at a dose of 7.5 mg/kg i.p. (day 7); assay type: functional; details: S-180, ip, 168 h, route intraperitoneal
[9] = tested on: Mus musculus; assay: as §1; assay type: functional; details: S-180, 168 h; remark: listed apart in the source
[10] = tested on: Mus musculus; assay: In vivo inhibitory activity against human lung adenocarcinoma xenograft A-549 in mice at a dose of 20 mg/kg (Q2dx9) administered i.p.; assay type: functional; details: A549, ip, route intraperitoneal
[11] = tested on: Mus musculus; assay: In vivo inhibitory activity against human lung adenocarcinoma xenograft A-549 in mice at a dose of 30 mg/kg (Q2dx10) administered i.p.; assay type: functional; details: route intraperitoneal
[12] = tested on: Mus musculus; assay: In vivo inhibitory activity against human lung adenocarcinoma xenograft A-549 in mice at a dose of 30 mg/kg (Q2dx9) administered i.p.; assay type: functional; details: A549, ip, route intraperitoneal
[13] = tested on: Mus musculus; assay: In vivo inhibitory activity against human lung adenocarcinoma xenograft LAX-83 in mice at a dose of 10 mg/kg (Q2dx10) administered i.p.; assay type: functional; details: route intraperitoneal; for inhibition in vivo at 10 mg/kg: ip
[14] = tested on: Mus musculus; assay: In vivo inhibitory activity against human lung adenocarcinoma xenograft LAX-83 in mice at a dose of 20 mg/kg (Q2dx10) administered i.p.; assay type: functional; details: route intraperitoneal
[15] = tested on: Mus musculus; assay: In vivo inhibitory activity against human lung adenocarcinoma xenograft LAX-83 in mice at a dose of 30 mg/kg (Q2dx10) administered i.p.; assay type: functional; details: route intraperitoneal
[16] = tested on: Mus musculus; assay: In vivo inhibitory activity against murine Lewis lung cancer at a dose of 15 mg/kg i.p. (day10); assay type: functional; details: route intraperitoneal
[17] = tested on: Mus musculus; assay: In vivo inhibitory activity against murine Lewis lung cancer at a dose of 37.5 mg/kg i.p. (day10); assay type: functional; details: route intraperitoneal
[18] = tested on: Mus musculus; assay: In vivo inhibitory activity against murine Lewis lung cancer at a dose of 7.5 mg/kg i.p. (day10); assay type: functional; details: ip, 240 h, route intraperitoneal
[19] = tested on: Mus musculus; assay: (§2) In vivo inhibitory activity against murine S-180 sarcoma at a dose of 15 mg/kg (day 6); assay type: functional; details: S-180, 144 h
[20] = tested on: Mus musculus; assay: as §2; assay type: functional; details: S-180, 144 h; remark: listed apart in the source
[21] = tested on: Mus musculus; assay: (§3) Ratio of the tumor weight of mice at the initial stage and the final stage of the experiment was reported at a dose of 7.5 mg/kg (day 7); assay type: functional
[22] = tested on: Mus musculus; assay: (§4) Ratio of the tumor weight of mice at the initial stage and the final stage of the experiment was reported at a dose of 7.5 mg/kg i.p. (day 10); assay type: functional; details: route intraperitoneal
[23] = tested on: Mus musculus; assay: as §4; assay type: functional; details: route intraperitoneal; remark: listed apart in the source
[24] = tested on: Mus musculus; assay: In vivo inhibitory activity against human lung adenocarcinoma xenograft A-549 in mice at a dose of 10 mg/kg (Q2dx10) administered i.p.; assay type: functional; details: route intraperitoneal
[25] = tested on: Mus musculus; assay: In vivo inhibitory activity against human lung adenocarcinoma xenograft A-549 in mice at a dose of 10 mg/kg (Q2dx9) administered i.p.; assay type: functional; details: A549, ip, route intraperitoneal
[26] = tested on: Mus musculus; assay: In vivo inhibitory activity against human lung adenocarcinoma xenograft A-549 in mice at a dose of 20 mg/kg (Q2dx10) administered i.p.; assay type: functional; details: route intraperitoneal
[27] = tested on: Mus musculus; assay: Ratio of the tumor weight of mice at the initial stage and the final stage of the experiment was reported at a dose of 10 mg/kg (Q2dx10) administered i.p.; assay type: functional; details: route intraperitoneal
[28] = tested on: Mus musculus; assay: (§5) Ratio of the tumor weight of mice at the initial stage and the final stage of the experiment was reported at a dose of 15 mg/kg (day 6); assay type: functional
[29] = tested on: Mus musculus; assay: Ratio of the tumor weight of mice at the initial stage and the final stage of the experiment was reported at a dose of 3.75 mg/kg (day 7); assay type: functional
[30] = tested on: Mus musculus; assay: Ratio of the tumor weight of mice at the initial stage and the final stage of the experiment was reported at a dose of 3.75 mg/kg i.p. (day 10); assay type: functional; details: route intraperitoneal
[31] = tested on: Mus musculus; assay: (§6) Ratio of the tumor weight of mice at the initial stage and the final stage of the experiment was reported at a dose of 15 mg/kg i.p. (day 9); assay type: functional; details: route intraperitoneal
[32] = tested on: Mus musculus; assay: as §5; assay type: functional; remark: listed apart in the source
[33] = tested on: Mus musculus; assay: as §6; assay type: functional; details: route intraperitoneal; remark: listed apart in the source
[34] = tested on: Mus musculus; assay: Ratio of the tumor weight of mice at the initial stage and the final stage of the experiment was reported at a dose of 20 mg/kg (Q2dx10) administered i.p.; assay type: functional; details: route intraperitoneal
[35] = tested on: Mus musculus; assay: Ratio of the tumor weight of mice at the initial stage and the final stage of the experiment was reported at a dose of 20 mg/kg (Q2dx9) administered i.p.; assay type: functional; details: route intraperitoneal
[36] = tested on: Mus musculus; assay: Ratio of the tumor weight of mice at the initial stage and the final stage of the experiment was reported at a dose of 3.75 mg/kg i.p. (day 7); assay type: functional; details: route intraperitoneal
[37] = tested on: Mus musculus; assay: (§7) Ratio of the tumor weight of mice at the initial stage and the final stage of the experiment was reported at a dose of 30 mg/kg (Q2dx10) administered i.p.; assay type: functional; details: route intraperitoneal
[38] = tested on: Mus musculus; assay: Ratio of the tumor weight of mice at the initial stage and the final stage of the experiment was reported at a dose of 30 mg/kg (Q2dx9) administered i.p.; assay type: functional; details: route intraperitoneal
[39] = tested on: Mus musculus; assay: as §7; assay type: functional; details: route intraperitoneal; remark: listed apart in the source
[40] = tested on: Mus musculus; assay: In vivo inhibitory activity against murine S-180 sarcoma at a dose of 15 mg/kg i.p. (day 6); assay type: functional; details: S-180, ip, 144 h, route intraperitoneal
[41] = tested on: Mus musculus; assay: as §3; assay type: functional; remark: listed apart in the source
[42] = tested on: Mus musculus; assay: In vivo inhibitory activity against human lung adenocarcinoma xenograft LAX-83 in mice at a dose of 2.0 mg/kg (Q2dx10) administered i.p.; assay type: functional; details: route intraperitoneal
[43] = tested on: Mus musculus; assay: In vivo inhibitory activity against human lung adenocarcinoma xenograft A-549 in mice at a dose of 2.0 mg/kg (Q2dx10) administered i.p.; assay type: functional; details: route intraperitoneal
[44] = tested on: Mus musculus; assay: In vivo inhibitory activity against human lung adenocarcinoma xenograft A-549 in mice at a dose of 2.0 mg/kg (Q2dx9) administered i.p.; assay type: functional; details: A549, ip, route intraperitoneal
[45] = tested on: Mus musculus; assay: Ratio of the tumor weight of mice at the initial stage and the final stage of the experiment was reported at a dose of 0.2 ml/mouse (Q2dx10) administered i.p.; assay type: functional
[46] = tested on: Mus musculus; assay: Ratio of the tumor weight of mice at the initial stage and the final stage of the experiment was reported at a dose of 0.2 ml/mouse (Q2dx10) administered i.p.; 10/10; assay type: functional
[47] = tested on: Mus musculus; assay: Ratio of the tumor weight of mice at the initial stage and the final stage of the experiment was reported at a dose of 0.2 ml/mouse (Q2dx9) administered i.p.; assay type: functional

Compound: C=C(C)[C@H](CCc1c(C)ccc2c1C(=O)C(=O)C(C(C)C)=C2)OO
- IC50 [1]: 3.7 µM
- IC50 [2]: 3.7 µM
- IC50 [3]: 2.22 µM
- IC50 [4]: 2.9 µM

Compound: CC(=O)OC(CCc1c(C)ccc2c1C(=O)C(=O)C(C(C)C)=C2)C(C)(C)O (stereo not drawn)
- IC50 [1]: 5.04 µM
- IC50 [2]: 3.39 µM
- IC50 [4]: 2.61 µM

Compound: Cc1ccc2c(c1CCC(Br)C(C)(C)O)C(=O)C(=O)C(C(C)C)=C2 (stereo not drawn)
- IC50 [1]: 4.61 µM
- IC50 [2]: 3.99 µM
- IC50 [3]: 6.12 µM
- IC50 [4]: 1.45 µM

Compound: Cc1ccc2c(c1CCC(O)C(C)(C)O)C(=O)C(=O)C(C(C)C)=C2 (stereo not drawn)
- IC50 [1]: 3.57 µM
- inhibition in vivo at 3.75 mg/kg [5]: 8.4%
- inhibition in vivo at 3.75 mg/kg [6]: 37.2%
- inhibition in vivo at 7.5 mg/kg [7]: 35.5%
- inhibition in vivo at 7.5 mg/kg [8]: 48.9%
- inhibition in vivo at 7.5 mg/kg [9]: 32.2%
- inhibition in vivo at 20 mg/kg [10]: 53.6%
- Inhibition [11]: 55.6% and 80.14%
- inhibition in vivo at 30 mg/kg [12]: 51.2%
- inhibition in vivo at 10 mg/kg ([13]; Mus musculus): 41%
- inhibition in vivo at 10 mg/kg [13]: 28%
- Inhibition ([13]; 10 mg/kg): 31.23%
- Inhibition [14]: 26.73% and 17.53% and 9.39%
- Inhibition [15]: 40.31% and 51.42% and 61.59%
- inhibition in vivo at 15 mg/kg ([16]; Mus musculus, Lung, ip, 240 h): 49%
- Inhibition ([16]; 15 mg/kg): 54.5%
- inhibition in vivo at 37.5 mg/kg ([17]; Mus musculus, Lung, ip, 240 h): 12.9%
- Inhibition ([17]; 37.5 mg/kg): 7.5%
- inhibition in vivo at 7.5 mg/kg [18]: 34%
- inhibition in vivo at 15 mg/kg [19]: 48.9%
- inhibition in vivo at 15 mg/kg [20]: 44%
- Tumor weight [21]: 1.07 g and 1.4 g
- Tumor weight [22]: 0.97 g
- Tumor weight [23]: 1.32 g
- inhibition in vivo at 10 mg/kg ([24]; Mus musculus, A549, ip): 48.2%
- Inhibition ([24]; 10 mg/kg): 30.15%
- inhibition in vivo at 10 mg/kg [25]: 25.5%
- Inhibition [26]: 60.55% and 27.76%
- Tumor weight [27]: 1.13 g [middle of 5 runs]
- Tumor weight [28]: 0.93 g
- Tumor weight [29]: 1.99 g and 1.72 g
- Tumor weight [30]: 1.28 g and 1.85 g
- Tumor weight [31]: 0.91 g
- Tumor weight [32]: 0.92 g and 1.06 g
- Tumor weight [33]: 0.75 g
- Tumor weight [34]: 1.25 g [middle of 5 runs]
- Tumor weight [35]: 1.59 g
- Tumor weight [36]: 1.52 g
- Tumor weight [37]: 0.72 g and 0.53 g and 1.02 g
- Tumor weight [38]: 1.67 g
- Tumor weight [39]: 0.93 g and 0.44 g
- IC50 [2]: 3.49 µM
- IC50 [3]: 1.84 µM
- IC50 [4]: 2.46 µM
- inhibition in vivo at 15 mg/kg [40]: 61.3%
- Tumor weight [41]: 1.22 g

Compound: CO[C@@]12[C@H](COC(N)=O)C3=C(C(=O)C(C)=C(N)C3=O)N1C[C@@H]1N[C@@H]12 [MITOMYCIN]
- Inhibition [42]: 63.49% and 70.1% and 87.54%
- inhibition in vivo at 2 mg/kg ([43]; Mus musculus, A549, ip): 67.9%
- Inhibition ([43]; 2 mg/kg): 52.69%
- inhibition in vivo at 2 mg/kg [44]: 79.2%
- Tumor weight [45]: 1.62 g and 1.71 g and 1.91 g and 1.15 g
- Tumor weight [46]: 2.64 g
- Tumor weight [47]: 3.43 g

Compound: Cc1ccc2c(c1CCC(=O)C(C)C)C(=O)C(=O)C(C(C)C)=C2
- IC50 [1]: 0.27 µM
- IC50 [2]: 0.83 µM
- IC50 [3]: 1.98 µM
- IC50 [4]: 3.38 µM

— ChEMBL document CHEMBL1131984, “Synthesis and antitumour activity of novel diterpenequinone salvicine and the analogs” (Bioorg Med Chem Lett, 1999)
